According to patent US7910593B2, “Water-soluble prodrugs” (Chugai Seiyaku Kabushiki Kaisha, priority 2004, dated 2011):

How the values were obtained:
[1] = Test Example 1: conversion of compound 2A into activated form in mouse serum; type: in vitro ADME; settings: for compound 2A (measured values, %): mouse serum, 50 μM, 37° C.
Protocol: The percentages of compound 2A produced in Example 2 being converted into an activated form in sera of humans, mice, monkeys, and dogs were determined. The activated form is in a rapid equilibrium between the lactone form and the carboxylate form, which were quantified separately.
Compound 2A was incubated at 37° C. at a concentration of 50 μM in sera of humans, mice, monkeys, and dogs. Incubation was terminated at a given time (0, 30, 60, 120, and 360 minutes), and the samples were analyzed by HPLC after deproteinization treatments.
Conditions for the HPLC analysis are as follows: • HPLC conditions • Column: Develosil C30-UG-3, 3 μm, 50×4.6 mm I.D • Column Temperature: constant temperature at approximately 25° C. • Mobile phase: A: 10 mM phosphate buffer (pH4.7) • B: acetonitrile • /B (min): 90/10(0)→90/10(0.4)→40/60(6)→2/98(8)→90/10(9)→90/10(15)
Flow rate: 1.0 mL/min • Detection: photodiode array detector, detection wavelength 350 nm • Amount injected: 30 μL
(§1) Generally, camptothecins in solution are in a rapid equilibrium between a structure in which the carbonyl at position 3 forms a 6-membered cyclic ester with the oxygen at position 2, and its open-ring structure. The lactone form refers to the former condition and the carboxylate form refers to the latter condition.

[2] = Test Example 5: conversion of compound 2A into activated form in mouse sera; type: in vitro ADME; settings: for compound 2A (measured values, %): Test Example 5, mouse sera, 50 μM, 37° C.
Protocol: (§2) The percentages of compound 2A produced in Example 2 being converted into an activated form in sera of humans, rats, mice, monkeys, and dogs were determined. The activated form is in a rapid equilibrium between the lactone form and the carboxylate form, which were quantified separately.
(§3) Compound 2A was incubated at 37° C. at a concentration of 50 μM in sera of humans, mice, rats, monkeys, and dogs. Incubation was terminated at a given time (0, 30, 60, 120, and 360 minutes), and the samples were analyzed by HPLC after deproteinization treatments.
(§4) Conditions for the HPLC analysis are as follows: • HPLC conditions • Column: Develosil C30-UG-3, 3 μm, 35×4.6 mm I.D • Column Temperature: constant temperature at approximately 25° C. • Mobile phase: A: 10 mM phosphate buffer (pH4.7) • B: acetonitrile • /B (min): 90/10(0)→90/10(0.4)→40/60(6)→2/98(8)→90/10(9)→90/10(15) • Flow rate: 1.0 mL/min • Detection: photodiode array detector, detection wavelength 350 nm • Amount injected: 30 μL
as §1

[3] = Test Example 5: conversion of compound 2A into activated form in rat sera; type: in vitro ADME; settings: for compound 2A (measured values, %): Test Example 5, rat sera, 50 μM, 37° C.
Protocol: as §2, §3, §4, §1

[4] = Test Example 5: conversion of compound 2A into activated form in dog sera; type: in vitro ADME; settings: for compound 2A (measured values, %): Test Example 5, dog sera, 50 μM, 37° C.
Protocol: as §2, §3, §4, §1

[5] = Test Example 2: stability at various pH values in buffers; type: physicochemical; settings: for Percent remaining: 25 μM, 25° C.
Protocol: The stability of compound 2A at various pH values was determined. The present compound was placed in buffers of various pHs at a concentration of 25 μM. After incubation at 25° C. for 0, 3, and 6 hours, the compound was analyzed by HPLC.
The buffers used at each pH are shown below. • pH2.0: 50 mM HCl-KCl buffer • pH3.0: 50 mM citrate buffer • pH4.0: 50 mM citrate buffer • pH5.0: 50 mM succinate buffer • pH6.5: 50 mM phosphate buffer • pH7.4: 50 mM phosphate buffer
as §4, with “for” for “for the”, “50×4.6” for “35×4.6”, “•” for “• /B”

[6] = Test Example 3: solubility in distilled water; type: physicochemical; settings: distilled water; read-out: Solubility in distilled water
Excerpt: The solubility of the water-soluble prodrugs obtained in the Examples (compounds 1A to 8A) in distilled water was compared to the solubility of (9S)-9-ethyl-9-hydroxy-1-pentyl-1H,12H-pyrano[3″,4″:6′,7′]indolizino[1′,2′:6,5]pyrido[4,3,2-de]quinazoline-10,13 (9H,15H)-dione (representative compound in Patent document 2: reference compound 1).

CCCCCN1C=Nc2cccc3nc4c(c1c23)Cn1c-4cc2c(c1=O)COC(=O)[C@@]2(CC)OC(=O)CN(C)C(=O)CN.Cl [Compound 2A, (9S)-9-Ethyl-9-(glycyl-sarcosyloxy)-1-pentyl-1H,12H-pyrano[3″,4″:6′,7′]indolizino[1′,2′:6,5]pyrido[4,3,2-de]quinazoline-10,13(9H,15H)-dione hydrochloride]
quickly converted to the lactone form: conversion to the lactone form (in words) ([1]; mouse sera, Test Example 1) | conversion to the lactone form (in words) ([2]; mouse sera, Test Example 5) | conversion to the lactone form (in words) ([3]; rat sera, Test Example 5) | conversion to the lactone form (in words) ([4]; dog sera, Test Example 5)
100%: Percent remaining ([5]; pH 2.0, 50 mM HCl-KCl buffer, 0 hr) | Percent remaining ([5]; pH 3.0, 50 mM citrate buffer, 0 hr) | Percent remaining ([5]; pH 4.0, 50 mM citrate buffer, 0 hr) | Percent remaining ([5]; pH 5.0, 50 mM succinate buffer, 0 hr) | Percent remaining ([5]; pH 6.5, 50 mM phosphate buffer, 0 hr) | Percent remaining ([5]; pH 7.4, 50 mM phosphate buffer, 0 hr)
96.1%: Percent remaining ([5]; pH 4.0, 50 mM citrate buffer, 6 hr)
stable: stability (in words) ([5]; up to pH3)
58.7%: Percent remaining ([5]; pH 5.0, 50 mM succinate buffer, 6 hr)
> 10000 µg/mL: solubility [6]
100.3%: Percent remaining ([5]; pH 3.0, 50 mM citrate buffer, 3 hr)
101.6%: Percent remaining ([5]; pH 2.0, 50 mM HCl-KCl buffer, 3 hr)
0%: compound 2A (measured values, %) ([1]; incubation 0 minutes) | compound 2A (measured values, %) ([1]; incubation 30 minutes) | compound 2A (measured values, %) ([1]; incubation 60 minutes) | compound 2A (measured values, %) ([1]; incubation 120 minutes) | compound 2A (measured values, %) ([1]; incubation 360 minutes) | compound 2A (measured values, %) ([2]; incubation 0 minutes) | compound 2A (measured values, %) ([2]; incubation 30 minutes) | compound 2A (measured values, %) ([2]; incubation 60 minutes) | compound 2A (measured values, %) ([2]; incubation 120 minutes) | compound 2A (measured values, %) ([2]; incubation 360 minutes) | compound 2A (measured values, %) ([3]; incubation 0 minutes) | compound 2A (measured values, %) ([3]; incubation 30 minutes) | compound 2A (measured values, %) ([3]; incubation 60 minutes) | compound 2A (measured values, %) ([3]; incubation 120 minutes) | compound 2A (measured values, %) ([3]; incubation 360 minutes) | compound 2A (measured values, %) ([4]; incubation 0 minutes) | compound 2A (measured values, %) ([4]; incubation 30 minutes) | compound 2A (measured values, %) ([4]; incubation 60 minutes) | compound 2A (measured values, %) ([4]; incubation 120 minutes) | compound 2A (measured values, %) ([4]; incubation 360 minutes) | Percent remaining ([5]; pH 6.5, 50 mM phosphate buffer, 3 hr) | Percent remaining ([5]; pH 6.5, 50 mM phosphate buffer, 6 hr) | Percent remaining ([5]; pH 7.4, 50 mM phosphate buffer, 3 hr) | Percent remaining ([5]; pH 7.4, 50 mM phosphate buffer, 6 hr)
101.1%: Percent remaining ([5]; pH 2.0, 50 mM HCl-KCl buffer, 6 hr) | Percent remaining ([5]; pH 3.0, 50 mM citrate buffer, 6 hr)
98.2%: Percent remaining ([5]; pH 4.0, 50 mM citrate buffer, 3 hr)
76.6%: Percent remaining ([5]; pH 5.0, 50 mM succinate buffer, 3 hr)
